From US20110217727A1, “METHOD FOR PATTERNING MAGNETIC MATERIALS IN LIVE CELL, METHOD FOR IMAGING PATTERN OF MAGNETIC MATERIALS, AND APPARATUS USED FOR SAME” (MEDISCOV INC., priority 2008, published 2011)

Key:
[1] = biological target: CSK-EGFP (Homo sapiens, UniProt P41240); assay: Fluorescent pattern of CSK-EGFP co-localized with magnetic materials in live HeLa cells under a magnetic field; type: cell-based; details: HeLa cells transfected with CMV-CSK-EGFP; ligand presented on magnetic particles (MNP); NDGA 25~50 μM; magnetic field applied; FIG. 10(A)
From the text: (§1) In this embodiment, it was observed whether a magnetized pattern of a plurality of magnetic materials formed by applying a magnetic field could be imaged by fluorescent labels when a surface-modified magnetic material was labeled with a fluorescent label through a mediator indirectly as well as directly. In addition, it was identified whether a fluorescent pattern was formed and overlapped (co-localized) with a pattern formed by magnetic materials in a direction of a line of magnetic force or not.
(§2) In addition, CSK (GenBank Acc. No. NM—004383.1) or SNF1LK (GenBank Acc. No. BCO38504) which binds to dasatinib was used for another linker constituting a mediator.
After HeLa cells were subcultured to 5,000˜10,000 cells/well on a 96-well plate, the HeLa cells were transfected by the expression vector DNA prepared as above. […] Magnetic materials coated with dasatinib-biotin were into the cells transfected with DNA by the method mentioned in Example 2, and then NDGA (Nordihydroguaiaretic acid, Sigma) was treated to the final concentration of 25˜50 μM.
In this embodiment, Olympus fluorescence microscope, FV1000, equipped with the object lens of Uplan Apo 40×/0.85 was used to obtain transmitted images in the cells.

[2] = biological target: T1, SNF1LK-EGFP (Homo sapiens, UniProt P57059); assay: Fluorescent pattern of SNF1LK-EGFP co-localized with magnetic materials in live HeLa cells under a magnetic field; type: cell-based; details: HeLa cells transfected with CMV-SNF1LK-EGFP; ligand presented on magnetic particles (MNP); NDGA 25~50 μM; magnetic field applied; FIG. 10(B)
T1 construct: ORF(open reading frame) clone without a stop codon was purchased from Open Biosystems; expressed in transfected cells; host or cells: HeLa
T1 sequence (P57059 whole entry): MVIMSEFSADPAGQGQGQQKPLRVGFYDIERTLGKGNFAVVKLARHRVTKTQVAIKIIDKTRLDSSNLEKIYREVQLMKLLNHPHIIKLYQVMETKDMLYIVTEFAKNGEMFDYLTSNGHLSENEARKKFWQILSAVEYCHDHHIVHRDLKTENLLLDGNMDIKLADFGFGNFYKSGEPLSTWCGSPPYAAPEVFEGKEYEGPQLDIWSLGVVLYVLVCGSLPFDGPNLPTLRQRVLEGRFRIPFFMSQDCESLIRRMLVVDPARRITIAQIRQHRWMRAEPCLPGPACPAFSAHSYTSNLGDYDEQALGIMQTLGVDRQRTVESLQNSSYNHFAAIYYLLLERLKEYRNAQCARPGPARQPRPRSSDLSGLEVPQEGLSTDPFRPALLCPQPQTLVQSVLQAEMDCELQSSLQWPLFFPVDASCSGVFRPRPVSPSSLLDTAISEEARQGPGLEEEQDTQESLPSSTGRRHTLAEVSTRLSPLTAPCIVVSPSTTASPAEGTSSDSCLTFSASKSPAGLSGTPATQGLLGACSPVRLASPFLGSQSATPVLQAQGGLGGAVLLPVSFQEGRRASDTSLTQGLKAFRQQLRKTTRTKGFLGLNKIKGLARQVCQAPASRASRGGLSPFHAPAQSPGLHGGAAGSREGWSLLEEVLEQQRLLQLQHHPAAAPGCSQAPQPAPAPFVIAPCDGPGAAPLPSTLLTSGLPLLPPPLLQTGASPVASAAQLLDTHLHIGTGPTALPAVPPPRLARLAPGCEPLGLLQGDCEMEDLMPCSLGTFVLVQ
From the text: as §1, §2
A clone of SNF1LK (GenBank Acc. No. BCO38504) ORF(open reading frame) clone without a stop codon was purchased from Open Biosystems. SNF1LK ORF clone and CSK ORF clone were cloned into pCMV-DEST-EGFP by a known cloning method to produce CMV-SNF1LK-EGFP and CMV-CSK-EGFP expression vectors (Hartley, et al. (2000) DNA cloning using in vitro site-specific recombination. Genome Res. 10, 1788-1795).
After HeLa cells were subcultured to 5,000˜10,000 cells/well on a 96-well plate, the HeLa cells were transfected by the expression vector DNA prepared as above. […]

fluorescent pattern of EGFP in a magnetized direction (direction of a line of magnetic force) [1]: identified
fluorescent pattern of EGFP in a magnetized direction (direction of a line of magnetic force) [2]: identified
SMILES: Cc1nc(Nc2ncc(C(=O)Nc3c(C)cccc3Cl)s2)cc(N2CCN(CCO)CC2)n1 [dasatinib, N-(2-chloro-6-methyl-phenyl)-2-(6-(4-(2-hydroxyethyl)-piperazin-1-yl)-2-methylpyrimidin-4-ylamino)thiazole-5-carboxamide]
